Source: paper PMC9696068 (2022)

Tested on: AT11 on 2[G4]-(N3)127/(AT11)34/(Cy5)1 (aptadendrimer) (DNA, G4) TGGTGGTGGTTGTTGTGGTGGTGGTGGT
Experiment: steady-state and time-resolved fluorescence, fluorescence anisotropy
Conditions: K+ 65 mM KCl plus potassium phosphate; 20 mM phosphate pH 6.9, room temperature; 0.5 µM C8, aptadendrimer titrated; dendrimer core may contribute

## CN(C)c1ccc2cc3ccc(N(C)C)cc3[n+](CCCCCCCCNC(=O)c3ccc(I)cc3)c2c1
  binding: yes
